The text below walks through data of patent US9765075B2, “Substituted bridged urea analogs as sirtuin modulators” (GLAXOSMITHKLINE LLC, priority 2013, dated 2017).

For this assay, the target named is T1, SIRT1 (Homo sapiens, UniProt Q96EB6).
T1 sequence (Q96EB6 1-747): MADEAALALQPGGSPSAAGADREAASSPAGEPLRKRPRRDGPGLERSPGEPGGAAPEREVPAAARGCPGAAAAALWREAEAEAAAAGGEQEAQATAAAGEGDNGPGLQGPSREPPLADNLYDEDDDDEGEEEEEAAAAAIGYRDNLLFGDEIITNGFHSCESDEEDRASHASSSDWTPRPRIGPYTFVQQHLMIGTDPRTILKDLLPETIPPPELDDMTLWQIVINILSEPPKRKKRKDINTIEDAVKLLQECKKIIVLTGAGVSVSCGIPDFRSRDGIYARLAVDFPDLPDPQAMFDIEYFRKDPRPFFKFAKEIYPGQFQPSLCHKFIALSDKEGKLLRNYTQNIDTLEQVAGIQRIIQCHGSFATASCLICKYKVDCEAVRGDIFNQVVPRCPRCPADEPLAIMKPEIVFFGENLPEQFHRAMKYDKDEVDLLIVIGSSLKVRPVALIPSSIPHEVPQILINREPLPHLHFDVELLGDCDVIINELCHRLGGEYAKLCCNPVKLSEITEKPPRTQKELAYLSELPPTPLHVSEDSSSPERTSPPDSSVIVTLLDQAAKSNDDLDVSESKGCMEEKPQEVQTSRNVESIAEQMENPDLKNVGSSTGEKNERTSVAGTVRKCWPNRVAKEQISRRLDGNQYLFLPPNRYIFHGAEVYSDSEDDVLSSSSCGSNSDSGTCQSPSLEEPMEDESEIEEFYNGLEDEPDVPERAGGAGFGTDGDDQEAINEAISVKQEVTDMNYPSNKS
The assay is described as follows: Trp mass spectrometry assay (SIRT1 activation). It counts as biochemical. The conditions noted are these: Trp peptide substrate; for Tryp AVG EC1.5 (μM): concentration of test compound that results in 150% activation of SIRT1; for Emax: percent maximum fold activation of SIRT1, read-out: Tryp % Fold Act. The method, boiled down:
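N-His-tagged SIRT1 (10 nM), expressed in E. coli, was incubated with 0.5 μM Ac-RHKK(Ac)W-NH2 peptide and 120 μM NAD+ for 25 min at 25 °C in HEPES pH 7.5 with […]. The reaction was stopped with formic acid and O-acetyl-ADP-ribose or deacetylated peptide was quantified by mass spectrometry. Results are given as EC1.5 and percent maximal activation relative to DMSO control.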

Consider `Cc1cncc(NC(=O)N2c3nc(N4CCCC(C(F)(F)F)C4)ccc3N3CC[C@H]2C3)c1` (stereo partly drawn) [Example 230], for which the “Tryp AVG EC1.5 (μM)” value is reported as “A (EC1.5<1 μM)” and the Emax was at least 150%.

In the case of `Cc1cc(NC(=O)N2c3nc(N4CCCC(C(F)(F)F)C4)ccc3N3CC[C@H]2C3)cc(C)n1` (stereo partly drawn) [Example 231], the “Tryp AVG EC1.5 (μM)” value is reported as “B (EC1.5 1-25 μM)” and the Emax was at least 150%.

As to `O=C(Nc1cncc(F)c1)N1c2nc(N3CCCC(C(F)(F)F)C3)ccc2N2CC[C@H]1C2` (stereo partly drawn) [Example 232], the “Tryp AVG EC1.5 (μM)” value is given as “B (EC1.5 1-25 μM)” and the Emax was at least 150%.

For `O=C(Nc1cccc(-c2cnco2)c1)N1c2nc(-c3cccc(C(F)(F)F)c3)ccc2N2CC[C@@H]1C2` [Example 233], the “Tryp AVG EC1.5 (μM)” value was “A (EC1.5<1 μM)” and the Emax was at least 150%.

With `O=C(Nc1ccncn1)N1c2nc(-c3cccc(Cl)c3)ccc2N2CC[C@@H]1C2` [Example 234], the “Tryp AVG EC1.5 (μM)” value is recorded as “B (EC1.5 1-25 μM)” and the Emax was at least 150%.

For `O=C(Nc1cccc(-c2cnco2)c1)N1c2nc(-c3cccc(Cl)c3)ccc2N2CC[C@@H]1C2` [Example 235], the “Tryp AVG EC1.5 (μM)” value was “A (EC1.5<1 μM)” and the Emax was at least 150%.

Regarding `Cc1ccc(-c2ccc3c(n2)N(C(=O)Nc2cnccn2)[C@H]2CCN3C2)cn1` [Example 236], the “Tryp AVG EC1.5 (μM)” value was “B (EC1.5 1-25 μM)” and the Emax was at least 150%.

With `Cc1ccc(-c2ccc3c(n2)N(C(=O)Nc2ccc(F)cn2)[C@H]2CCN3C2)cn1` [Example 237], the “Tryp AVG EC1.5 (μM)” value is given as “B (EC1.5 1-25 μM)” and the Emax is at least 150%.

As for `Cc1cc(-c2ccc3c(n2)N(C(=O)Nc2cncc(F)c2)[C@H]2CCN3C2)ccn1` [Example 238], the “Tryp AVG EC1.5 (μM)” value is “B (EC1.5 1-25 μM)” and the Emax is at least 150%.

As to `O=C(Nc1cnccn1)N1c2nc(-c3cccc(N4CCC(F)(F)C4)c3)ccc2N2CC[C@H]1C2` [Example 239], the “Tryp AVG EC1.5 (μM)” value is on record as “A (EC1.5<1 μM)” and the Emax was at least 150%.

Take `COc1cc(NC(=O)N2c3nc(-c4ccnc(C)c4)ccc3N3CC[C@H]2C3)ncn1` [Example 240]: the “Tryp AVG EC1.5 (μM)” value is “B (EC1.5 1-25 μM)” and the Emax was at least 150%.

On to `CN(C)[C@H]1CCN(c2ccc3c(n2)N(C(=O)Nc2cccnc2)[C@H]2CCN3C2)C1` [Example 242], for which the “Tryp AVG EC1.5 (μM)” value is given as “B (EC1.5 1-25 μM)” and the Emax is at least 150%.

For `Cc1cncc(NC(=O)N2c3nc(N4CC[C@H](N(C)C)C4)ccc3N3CC[C@H]2C3)c1` [Example 243], the “Tryp AVG EC1.5 (μM)” value was “C (EC1.5>25 μM)” and the Emax was at least 150%.

For `CN(C)[C@H]1CCN(c2ccc3c(n2)N(C(=O)Nc2cncc(F)c2)[C@H]2CCN3C2)C1` [Example 244], the “Tryp AVG EC1.5 (μM)” value is given as “B (EC1.5 1-25 μM)” and the Emax was at least 150%.

On to `Cc1cc(NC(=O)N2c3nc(N4CC[C@H](N(C)C)C4)ccc3N3CC[C@H]2C3)cc(C)n1` [Example 245], for which the “Tryp AVG EC1.5 (μM)” value is listed as “B (EC1.5 1-25 μM)” and the Emax is at least 150%.

As for `CN(C)[C@H]1CCN(c2ccc3c(n2)N(C(=O)Nc2cnccn2)[C@H]2CCN3C2)C1` [Example 246], the “Tryp AVG EC1.5 (μM)” value is on record as “B (EC1.5 1-25 μM)” and the Emax was at least 150%.

On to `CN(C)[C@H]1CCN(c2ccc3c(n2)N(C(=O)Nc2nccs2)[C@H]2CCN3C2)C1` [Example 247], for which the “Tryp AVG EC1.5 (μM)” value is on record as “B (EC1.5 1-25 μM)” and the Emax is at least 150%.

Consider `O=C(Nc1ccncn1)N1c2nc(-c3cncc(Cl)c3)ccc2N2CC[C@H]1C2` [Example 249], for which the “Tryp AVG EC1.5 (μM)” value is listed as “B (EC1.5 1-25 μM)” and the Emax was at least 150%.

As to `COc1cc(NC(=O)N2c3nc(-c4cncc(Cl)c4)ccc3N3CC[C@H]2C3)ncn1` [Example 250], the “Tryp AVG EC1.5 (μM)” value is recorded as “A (EC1.5<1 μM)” and the Emax is at least 150%.

As to `CN(C)c1cccc(-c2ccc3c(n2)N(C(=O)Nc2ccccn2)[C@@H]2CCCN3C2)c1` [Example 251], the “Tryp AVG EC1.5 (μM)” value is “C (EC1.5>25 μM)” and the Emax is at least 150%.

On to `Cc1nc(NC(=O)N2c3nc(-c4cccc(N(C)C)c4)ccc3N3CCC[C@@H]2C3)sc1C` [Example 252], for which the “Tryp AVG EC1.5 (μM)” value was “C (EC1.5>25 μM)” and the Emax was at least 150%.

Take `CN(C)c1cccc(-c2ccc3c(n2)N(C(=O)Nc2ccc(F)cn2)[C@@H]2CCCN3C2)c1` [Example 253]: the “Tryp AVG EC1.5 (μM)” value is given as “C (EC1.5>25 μM)” and the Emax was under 150%.

For `O=C(Nc1ccccn1)N1c2nc(-c3cccc(N4CCC(F)(F)C4)c3)ccc2N2CC[C@H]1C2` [Example 254], the “Tryp AVG EC1.5 (μM)” value is reported as “A (EC1.5<1 μM)” and the Emax was at least 150%.

Regarding `COc1cc(NC(=O)N2c3nc(-c4cccc(N5CC[C@H](F)C5)c4)ccc3N3CC[C@H]2C3)ncn1` [Example 255], the “Tryp AVG EC1.5 (μM)” value is recorded as “B (EC1.5 1-25 μM)” and the Emax was at least 150%.

Regarding `COc1cc(NC(=O)N2c3nc(-c4cccc(N5CCC(F)(F)C5)c4)ccc3N3CC[C@H]2C3)ncn1` [Example 256], the “Tryp AVG EC1.5 (μM)” value is reported as “B (EC1.5 1-25 μM)” and the Emax was at least 150%.

In the case of `O=C(Nc1ccc(F)cn1)N1c2nc(-c3cccc(N4CCC(F)(F)C4)c3)ccc2N2CC[C@H]1C2` [Example 257], the “Tryp AVG EC1.5 (μM)” value was “B (EC1.5 1-25 μM)” and the Emax was at least 150%.

On to `O=C(Nc1ccccn1)N1c2nc(Cl)ccc2N2CC[C@H]1C2` [Example 258], for which the “Tryp AVG EC1.5 (μM)” value is reported as “C (EC1.5>25 μM)” and the Emax is at least 150%.

On to `O=C(Nc1cncc(F)c1)N1c2nc(Cl)ccc2N2CC[C@H]1C2` [Example 259], for which the “Tryp AVG EC1.5 (μM)” value is “B (EC1.5 1-25 μM)” and the Emax is at least 150%.

`O=C(Nc1ccccn1)N1c2nc(-c3cncc(Cl)c3)ccc2N2CC[C@H]1C2` [Example 260]: the “Tryp AVG EC1.5 (μM)” value is “A (EC1.5<1 μM)” and the Emax was at least 150%.

For the compound `O=C(Nc1ccc(F)cn1)N1c2nc(-c3cncc(Cl)c3)ccc2N2CC[C@H]1C2` [Example 261], the “Tryp AVG EC1.5 (μM)” value was “A (EC1.5<1 μM)” and the Emax was at least 150%.

On to `O=C(Nc1ccccn1)N1c2nc(-c3ccc4c(c3)OC(F)(F)O4)ccc2N2CC[C@H]1C2` [Example 262], for which the “Tryp AVG EC1.5 (μM)” value is given as “B (EC1.5 1-25 μM)” and the Emax was at least 150%.

For the compound `COc1ncc(-c2ccc3c(n2)N(C(=O)Nc2ccccn2)[C@H]2CCN3C2)c(OC)n1` [Example 263], the “Tryp AVG EC1.5 (μM)” value is given as “B (EC1.5 1-25 μM)” and the Emax was at least 150%.

For the compound `CN(C)c1cccc(-c2ccc3c(n2)N(C(=O)Nc2cccc(-c4cnco4)c2)[C@@H]2CCCN3C2)c1` [Example 264], the “Tryp AVG EC1.5 (μM)” value was “A (EC1.5<1 μM)” and the Emax is at least 150%.

In the case of `COc1cc(NC(=O)N2c3nc(-c4cccc(N(C)C)c4)ccc3N3CCC[C@@H]2C3)ncn1` [Example 265], the “Tryp AVG EC1.5 (μM)” value was “B (EC1.5 1-25 μM)” and the Emax was at least 150%.

Regarding `CN(C)c1cccc(-c2ccc3c(n2)N(C(=O)Nc2cnccn2)[C@@H]2CCCN3C2)c1` [Example 266], the “Tryp AVG EC1.5 (μM)” value was “B (EC1.5 1-25 μM)” and the Emax is at least 150%.

`O=C(Nc1cnccn1)N1c2nc(-c3cccc(N4CC[C@@H](F)C4)c3)ccc2N2CC[C@H]1C2` [Example 267]: the “Tryp AVG EC1.5 (μM)” value is reported as “B (EC1.5 1-25 μM)” and the Emax is at least 150%.

Take `O=C(Nc1cnccn1)N1c2nc(-c3cccc(N4CC[C@H](F)C4)c3)ccc2N2CC[C@H]1C2` [Example 268]: the “Tryp AVG EC1.5 (μM)” value is listed as “A (EC1.5<1 μM)” and the Emax is at least 150%.

Regarding `O=C(Nc1ccc(F)cn1)N1c2nc(-c3cccc(N4CC[C@@H](F)C4)c3)ccc2N2CC[C@H]1C2` [Example 269], the “Tryp AVG EC1.5 (μM)” value is “B (EC1.5 1-25 μM)” and the Emax is at least 150%.

For the compound `O=C(Nc1ccc(F)cn1)N1c2nc(-c3cccc(N4CC[C@H](F)C4)c3)ccc2N2CC[C@H]1C2` [Example 270], the “Tryp AVG EC1.5 (μM)” value is “B (EC1.5 1-25 μM)” and the Emax is at least 150%.

With `O=C(Nc1cncc(F)c1)N1c2nc(-c3cccc(N4CCC(F)(F)C4)c3)ccc2N2CC[C@H]1C2` [Example 271], the “Tryp AVG EC1.5 (μM)” value was “A (EC1.5<1 μM)” and the Emax was at least 150%.

For `O=C(Nc1ccccn1)N1c2nc(-c3cccc(C(F)(F)F)c3)ccc2N2CCC[C@@H]1C2` [Example 272], the “Tryp AVG EC1.5 (μM)” value is listed as “B (EC1.5 1-25 μM)” and the Emax is at least 150%.

Take `O=C(Nc1cncc(F)c1)N1c2nc(-c3cccc(C(F)(F)F)c3)ccc2N2CCC[C@@H]1C2` [Example 273]: the “Tryp AVG EC1.5 (μM)” value is on record as “A (EC1.5<1 μM)” and the Emax was at least 150%.
